Series [1] has as its system collagen remodeling in bones and cartilages. The settings on record: 4 nmol intravenous, photo-decaged, four days after injection.
Series [2] is described as follows: Circular dichroism spectra and thermal melting of CMPs. The class given is physicochemical. To be noted: for Tm (CD melting curve, triple helix): after UV exposure (photo-decaged), heating rate 60° C./hr, Tm about 10° C. higher than equilibrium Tm. The method, then:
Circular dichroism spectroscopy. CD spectra were collected on JASCO 715 spectrophotometer equipped with a JASCO PTC-348 WI temperature controller and quartz cells (0.1 mm path length). CMP solutions (320 μL, 150 μM in 1×PBS) were stored at 4° C. for at least 24 hours before measurement. For photo-decaging, samples were exposed to 365 nm UV light for at least 30 minutes before the 4° C. incubation. The thermal melting studies were performed by measuring the ellipticity at 225 nm with 60° C./hr heating rate. Raw CD signal was normalized to mean residue ellipticity based on the peptide's length and concentration (Biopolymers 95:94-104 (2011)). Melting temperatures (Tm) were determined by fitting the mean residue ellipticity to a two-state model (Org Lett 8:4735-4738 (2006)). To measure the refolding kinetics, CMP solution was thermally denatured at 75° C. for 10 minutes in a cuvette and rapidly quenched to 25° C. in an ice-water bath, after which the CD signal at 225 nm was observed over time at 25° C. The CD spectra of intact and MMP-1 cleaved type I collagen (FIG. 12) was measured in 90 μg/mL protein solutions in 20 mM acetic acid buffer at 22° C. The 37° C. thermal stability profile (FIG. 2E, inset) was generated by monitoring the ellipticity at 222 nm immediately after transferring the cuvette to a temperature controlled cuvette holder pre-set to 37° C. The Tm values reported in this study are approximately 10° C. higher than the equilibrium Tm due to high heating rate (60° C./hr) (Biopolymers 73:682-688 (2004)).
Synthesis of fluorescently labeled collagen mimetic peptides. Non-caged CMPs were synthesized using Fmoc-mediated solid-phase chemistry by manual or automated synthesis as described previously.2,4 The caged NB(GPO)9 (SEQ ID NO: 12) was prepared by introducing Fmoc(N-o-nitrobenzyl)Gly-OH (synthesized according to Tatsu et al. 2,5) in the middle of the standard solid-phase peptide synthesis. The Hyp residue following the NBGly was conjugated using 9 molar equiv of Fmoc-Hyp(tBu)-OH, 8.8 molar equiv of PyBroP, and 20 molar equiv of DIPEA for over 24 hr to overcome the low reactivity caused by the steric hindrance of the NB cage group. The remaining sequence including the GGG spacer was completed by HBTU chemistry, followed by on-resin labeling with 6 molar equivalent of CF or TAMRA activated by 6 molar equivalent of PyAOP for over 24 hr. The full length fluorescent CMPs were cleaved from resin by treating the resin with TFA/TIS/H2O (95:2.5:2.5) for 3 hr and the cleaved peptide was purified by reverse phase HPLC on a Vydac C18 column using a linear gradient mixture of water (0.1% TFA) and acetonitrile (0.1% TFA) (5-45% acetonitrile gradient in 40 min). The purified peptides were analyzed by MALDI-TOF MS (FIG. 27): m/z calculated 2975.1 [M+Na+] for CF(GPO)9 (SEQ ID NO: 10), found 2975.0 [M+Na+]; m/z calculated 2975.1 [M+Na+] for ^SG9P9O9 (SEQ ID NO: 5), found 2973.5 [M+Na+]; m/z calculated 3110.2 [M+Na+] for CF^NB(GPO)9 (SEQ ID NO: 4), found 3109.4 [M+Na+]; m/z calculated 2975.1 [M+Na+] for CF(GPO)9 (SEQ ID NO: 10) [CF^NB(GPO)9 (SEQ ID NO: 4) after UV decaging], found 2974.1 [M+Na+]; m/z calculated 3142.3 [M+H+] for TAMRA-NB(GPO)9 (SEQ ID NO: 12), found 3141.4 [M+H+]; m/z calculated 3007.2 [M+H+] for TAMRA-(GPO)9 (SEQ ID NO: 15), [TAMRA-NB(GPO)9 (SEQ ID NO: 12) after decaging], found 3006.3 [M+H+]. CD spectra and CD melting curves of the labeled CMPs were acquired in PBS solutions using a JASCO 715 CD spectrophotometer. The solutions were incubated for at least 24 hours at 4° C. prior to CD experiment to ensure folding (FIG. 28).

For series [3], the system named is PC-3 prostate tumor xenografts (PC3-PIP, PC3-flu). As to the kind of experiment: In vivo tumor targeting, NIRF imaging, prostate xenografts. On the set-up: species or system mouse. The settings on record: 3.7 nmol, tail vein, UV-activated, imaging over four days (to 96 hours PI).
Series [4] concerns Panc02 and Panc198 tumors. Put plainly: In vivo tumor targeting, NIRF imaging, pancreatic xenografts. On the set-up: species or system mouse. To be noted: approximately 4 nmol, tail vein; 96 hr post injection. The method, then:
Murine Panc02 and human Panc198 cells were acquired from the ATCC (Rockville, Md.) and cultured in RPMI1640 supplemented with 10% FBS, 10 μg/mL of streptomycin and 10 I.U./mL of penicillin at 37° C. in 5% CO2 and humidified air until 80-95% confluence. The cells were then trypsinized and formulated at either 2×10^6 cells/100 μL (Panc198) or 1×10^6 cells/100 μL (Panc02) followed by subcutaneous inoculation into 12-week-old female athymic nu/nu mice (NCI). Panc198 and Panc02 cells were inoculated subcutaneously behind the left and right shoulder, respectively. When the Panc02 xenograft reached 4-6 mm in diameter (˜2 weeks after inoculation), each mouse was intravenously administered with solution containing 4 nmol of photo-activated IR-Ahx-(GPO)9 (SEQ ID NO: 9) or IR-Ahx-^SG9P9O9 (SEQ ID NO: 8) and 1 nmol of cysteine, followed by MMPsense injection and NIRF imaging as described.

Series [5] has as its target T1, type I collagen films (fibrillar collagen) (Rattus norvegicus, UniProt P02454+P02466).
T1 construct: Collagen solution (200 μL, 3.71 mg/mL, type I rat tail, BD Science); purchased BD Science; host or cells: rat tail
As to the kind of experiment: Photo-triggered CMP binding assay on collagen films. The settings on record: 4° C., overnight incubation. The method, then: (§1) Collagen/gelatin binding assays. Collagen solution (200 μL, 3.71 mg/mL, type I rat tail, BD Science) in 0.02 N acetic acid was added to each well of a 96-well black/clear-bottom plate (Costar) and air-dried. To make gelatin films, the same collagen solution was denatured at 70° C. for 15 minutes before applying to the well. The dried films were neutralized and washed with 1×PBS buffer (pH 7.4) and deionized water. PBS solution of carboxyfluorescein-labeled caged CMP (40 μL, 50 μM, unless indicated otherwise) pre-equilibrated at 4° C. was added onto each reconstituted collagen or gelatin film and exposed to 365 nm UV light (10 mW/cm^2, from mercury arc lamp) for 11 minutes on ice. Wells for the UV-negative control groups were covered with aluminum foil to block UV exposure. After incubation at 4° C. for over 3 hours (unless indicated otherwise), the unbound materials were removed by rinsing with PBS buffer and deionized water. The films were allowed to dry in dark, after which the fluorescence (ex: 489 nm, em: 533 nm) was measured with a SpectraMax Gemini XPS microplate reader (Molecular Devices). Each binding experiment was done in triplicate.

For series [6], the target named is T2, thermally-denatured collagen (gelatin) films (Rattus norvegicus, UniProt P02454+P02466).
T2 construct: To make gelatin films, the same collagen solution was denatured at 70° C. for 15 minutes; purchased BD Science; host or cells: rat tail
T2 sequence (P02454 152-1207 limits assumed): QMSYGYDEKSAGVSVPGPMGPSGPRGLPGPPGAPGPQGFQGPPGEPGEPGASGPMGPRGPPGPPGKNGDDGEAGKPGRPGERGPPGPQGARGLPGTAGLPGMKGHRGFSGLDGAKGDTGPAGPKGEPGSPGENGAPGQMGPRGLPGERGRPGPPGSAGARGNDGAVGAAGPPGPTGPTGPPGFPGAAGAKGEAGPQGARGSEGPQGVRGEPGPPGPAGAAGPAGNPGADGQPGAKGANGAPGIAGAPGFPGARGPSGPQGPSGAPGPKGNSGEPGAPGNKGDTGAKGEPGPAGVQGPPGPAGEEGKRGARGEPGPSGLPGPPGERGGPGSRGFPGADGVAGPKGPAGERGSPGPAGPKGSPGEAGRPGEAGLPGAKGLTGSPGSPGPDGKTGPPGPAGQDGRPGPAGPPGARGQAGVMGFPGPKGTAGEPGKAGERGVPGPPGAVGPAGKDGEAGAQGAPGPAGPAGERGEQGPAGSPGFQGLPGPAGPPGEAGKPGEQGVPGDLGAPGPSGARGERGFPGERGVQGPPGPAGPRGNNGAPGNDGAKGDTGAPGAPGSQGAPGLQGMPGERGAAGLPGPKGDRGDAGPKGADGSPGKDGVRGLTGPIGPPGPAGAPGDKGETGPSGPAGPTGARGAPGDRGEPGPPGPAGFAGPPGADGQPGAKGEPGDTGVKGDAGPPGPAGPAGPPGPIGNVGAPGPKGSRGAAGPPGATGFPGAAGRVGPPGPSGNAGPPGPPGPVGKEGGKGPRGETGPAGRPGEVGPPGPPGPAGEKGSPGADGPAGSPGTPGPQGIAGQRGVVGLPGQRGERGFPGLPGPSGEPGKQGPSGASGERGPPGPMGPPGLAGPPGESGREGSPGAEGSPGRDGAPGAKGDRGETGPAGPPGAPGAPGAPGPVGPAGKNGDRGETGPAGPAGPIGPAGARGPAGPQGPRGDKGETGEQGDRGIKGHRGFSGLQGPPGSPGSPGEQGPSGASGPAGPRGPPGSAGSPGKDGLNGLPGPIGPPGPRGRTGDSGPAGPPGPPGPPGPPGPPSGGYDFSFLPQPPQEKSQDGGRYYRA
T2 sequence (P02466 86-1125 limits assumed): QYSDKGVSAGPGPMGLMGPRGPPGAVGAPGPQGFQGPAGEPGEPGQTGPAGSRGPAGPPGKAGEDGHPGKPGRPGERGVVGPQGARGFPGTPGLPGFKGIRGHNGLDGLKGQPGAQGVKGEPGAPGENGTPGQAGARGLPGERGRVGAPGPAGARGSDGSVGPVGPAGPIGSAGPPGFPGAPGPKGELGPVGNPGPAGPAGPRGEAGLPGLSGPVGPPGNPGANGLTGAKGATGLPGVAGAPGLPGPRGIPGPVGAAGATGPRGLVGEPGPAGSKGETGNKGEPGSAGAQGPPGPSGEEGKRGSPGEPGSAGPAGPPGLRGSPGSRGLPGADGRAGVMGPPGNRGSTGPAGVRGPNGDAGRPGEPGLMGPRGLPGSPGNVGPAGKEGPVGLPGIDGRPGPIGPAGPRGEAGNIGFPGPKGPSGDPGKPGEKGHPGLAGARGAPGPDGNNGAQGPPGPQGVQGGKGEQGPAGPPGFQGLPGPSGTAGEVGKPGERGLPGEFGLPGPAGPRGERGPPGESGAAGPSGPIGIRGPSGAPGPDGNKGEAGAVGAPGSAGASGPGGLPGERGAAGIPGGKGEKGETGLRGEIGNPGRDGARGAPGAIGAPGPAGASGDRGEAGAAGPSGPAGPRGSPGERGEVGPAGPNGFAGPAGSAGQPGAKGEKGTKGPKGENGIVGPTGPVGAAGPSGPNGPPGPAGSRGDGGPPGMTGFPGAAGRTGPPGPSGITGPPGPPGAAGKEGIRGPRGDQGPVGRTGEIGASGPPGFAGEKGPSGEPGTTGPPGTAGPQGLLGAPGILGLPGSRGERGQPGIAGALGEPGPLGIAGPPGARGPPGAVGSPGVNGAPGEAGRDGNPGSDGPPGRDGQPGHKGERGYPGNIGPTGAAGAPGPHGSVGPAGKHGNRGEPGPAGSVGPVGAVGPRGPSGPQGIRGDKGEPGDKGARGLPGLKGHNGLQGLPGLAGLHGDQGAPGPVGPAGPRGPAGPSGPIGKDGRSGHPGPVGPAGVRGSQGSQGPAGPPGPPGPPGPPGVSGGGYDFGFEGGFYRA
Put plainly: Photo-triggered CMP binding assay on gelatin films. To be noted: after photo-cleavage, type I gelatin films. The method, then:
as §1

In series [7] the target is T3, MMP-1 cleaved type I collagen (3/4 and 1/4 fragments) (rat, UniProt P02454 152-1207; P02466 86-1125).
T3 construct: Tested kept at 22 C, after 1 min at 37 C (spontaneously denatured), and as denatured bands in SDS-PAGE; also called MMP-1 digested collagens; MMP-Col
T3 sequence (P02454 152-1207, chain 1 of 2): as the sequence (P02454 152-1207 limits assumed) above
T3 sequence (P02466 86-1125, chain 2 of 2): as the sequence (P02466 86-1125 limits assumed) above
Put plainly: fluorescent staining of SDS-PAGE gel.

Series [8] has as its target T4, mouse type IV collagen (denatured, reduced, in SDS-PAGE) (mouse, UniProt P02463 28-1669; P08122 26-1707).
T4 construct: also called collagen type IV
Put plainly: fluorescent staining of SDS-PAGE gel.

Non-standard residues stand in square brackets, D forms with d. No end group written: not given here. *: point of attachment. IRDye800CW = CC1(C)C(/C=C/C2=C(Oc3ccc(S(=O)(=O)O)cc3)C(=C/C=C3/N(CCCCS(=O)(=O)O)c4ccc(S(=O)(=O)O)cc4C3(C)C)/CCC2)=[N+](CCCCCC(=O)*)c2ccc(S(=O)(=O)[O-])cc21; Hyp = O=C(O)[C@@H]1C[C@@H](O)CN1; CF = 5(6)-carboxyfluorescein; Ahx = NCCCCCC(=O)O

T1 sequence (P02454 152-1207 limits assumed): as the sequence (P02454 152-1207 limits assumed) above
T1 sequence (P02466 86-1125 limits assumed): as the sequence (P02466 86-1125 limits assumed) above

For the molecule “IR′-Ahx-^SG9P9O9: IRDye 680RD labeled sequence-scrambled peptide, SEQ ID NO: 8 ({IRDye 680RD-Ahx}-PGPGPGPPPPGPGPPPGPPPGGPPPPG; not fully specified; numbers in words are those of the source; also: 9 O residues (G9P9O9), places not given here)”, the “skeletal uptake (whole body NIRF)” value in series [1] is “signal only from the digestive system”.
Turning to CF-GGG-(GPP)4^NBGPP(GPP)4 [CF^NB(GPP)9], the “Tm (CD melting curve, triple helix)” value in series [2] is 51 °C.
Turning to “IR-Ahx-^SG9P9O9: IRDye-800CW labeled sequence-scrambled control peptide with Ahx spacer, SEQ ID NO: 8 ({IRDye800CW-Ahx}-PGPGPGPPPPGPGPPPGPPPGGPPPPG; numbers in words are those of the source; also: 9 O residues (G9P9O9), places not given here)”, the “triple helical folding capacity (CD melting)” value in series [2] (sequence-scrambled peptide) is on record as “no triple helix forming capacity”. In addition, the “tumor accumulation (in vivo NIRF imaging)” value in series [3] is “minimal accumulation at the tumor sites”; in series [3] (listed as IR-Ahx-SG9P9O9) it was “cleared out”. In addition, in series [4], the “tumor accumulation (NIRF imaging)” value is “no peptide accumulation”.
Turning to “CF-GGG-(G^DP^DP)4^NBG^DP^DP(G^DP^DP)4 [CF^NB(G^DP^DP)9]”, the “Tm (CD melting curve, triple helix)” value in series [2] came to 51 °C. In series [5], the “UV triggered collagen binding as fraction of that of CF^NB(GPP)9” value is “about one fourth”. For the same molecule, in series [6], the “level of gelatin binding relative to CF^NB(GPP)9” value was “an order of magnitude lower”.

B1: CF^SG9P9O9, sequence-scrambled control peptide, CF-GGG-PGOGPGPOPOGOGOPPGOOPGGOOPPG (peptide)
peptide: {CF}-GGGPG[Hyp]GPGP[Hyp]P[Hyp]G[Hyp]G[Hyp]PPG[Hyp][Hyp]PGG[Hyp][Hyp]PPG
notes: Cannot fold into a triple helix; also called ^9G9P9O9; ^CG9P9O9
For B1, the binding result in series [7] and in series [8] was “no binding (tested: 6 µM)” each time.

The record behind these values is patent US10426850B2, “Collagen mimetic peptides for targeting collagen strands for in vitro and in vivo imaging and therapeutic use” (The Johns Hopkins University, priority 2011, dated 2019).
